BigSolDB 2.1

O=[N+]([O-])/N=C1\NCCN1Cc1ccc(Cl)nc1
Details	solubility (mole fraction)
in 1,2-dichloroethane, 299.96 K	0.00987
in 1,2-dichloroethane, 302.87 K	0.0108
in 1,2-dichloroethane, 304.97 K	0.0116
in 1,2-dichloroethane, 310.08 K	0.0142
in 1,2-dichloroethane, 314.14 K	0.0161
in 1,2-dichloroethane, 317.43 K	0.0183
in 1,2-dichloroethane, 321.31 K	0.0213
in 1,2-dichloroethane, 325.67 K	0.0243
in 1,2-dichloroethane, 328.74 K	0.0271
in 1,2-dichloroethane, 331.34 K	0.0309
in 1,2-dichloroethane, 333.75 K	0.0345
in 1,2-dichloroethane, 336.91 K	0.0392
in 1,2-dichloroethane, 339.95 K	0.0442
in 1,2-dichloroethane, 342.81 K	0.049
in 1,2-dichloroethane, 345.2 K	0.0546
in 1,2-dichloroethane, 347.1 K	0.0612
in 2-butanone, 293.07 K	0.0159
in 2-butanone, 299.44 K	0.0192
in 2-butanone, 302.54 K	0.0213
in 2-butanone, 306.3 K	0.0238
in 2-butanone, 308.85 K	0.026
in 2-butanone, 311.24 K	0.0281
in 2-butanone, 314.22 K	0.0308
in 2-butanone, 318.19 K	0.0346
in 2-butanone, 320.83 K	0.0379
in 2-butanone, 323.87 K	0.0419
in 2-butanone, 326.73 K	0.046
in 2-butanone, 329.81 K	0.0504
in 2-butanone, 332.97 K	0.0573
in 2-butanone, 335.21 K	0.0617
in 2-butanone, 337.54 K	0.0678
in 2-butanone, 340.65 K	0.0749
in 2-butanone, 343.2 K	0.0823
in acetone, 294.64 K	0.012
in acetone, 300.05 K	0.0141
in acetone, 301.76 K	0.0148
in acetone, 305.05 K	0.0162
in acetone, 307.77 K	0.0175
in acetone, 310.17 K	0.0187
in acetone, 317.25 K	0.0232
in acetone, 319.14 K	0.0248
in acetone, 321.59 K	0.0265
in acetone, 327.89 K	0.0325
in acetone, 330.2 K	0.0353
in chloroform, 292.04 K	0.00848
in chloroform, 294.49 K	0.00916
in chloroform, 298.22 K	0.0102
in chloroform, 303.84 K	0.0115
in chloroform, 307.04 K	0.0123
in chloroform, 310.05 K	0.0132
in chloroform, 314.03 K	0.0143
in chloroform, 316.75 K	0.0153
in chloroform, 319.07 K	0.0167
in chloroform, 321.74 K	0.0183
in chloroform, 324.64 K	0.0198
in chloroform, 326.71 K	0.0215
in chloroform, 330.16 K	0.024
in dichloromethane, 293.97 K	0.0132
in dichloromethane, 295.96 K	0.0146
in dichloromethane, 298 K	0.0157
in dichloromethane, 300.05 K	0.0166
in dichloromethane, 302.6 K	0.0177
in dichloromethane, 303.99 K	0.0189
in dichloromethane, 305.96 K	0.0199
in dichloromethane, 307.8 K	0.0211
in dichloromethane, 309.6 K	0.0223
in dichloromethane, 311.66 K	0.0236
in dichloromethane, 313.14 K	0.0248
in dichloromethane, 313.93 K	0.0254
in ethanol, 298.69 K	0.000502
in ethanol, 301.12 K	0.000569
in ethanol, 305.66 K	0.000794
in ethanol, 308.87 K	0.001
in ethanol, 312.34 K	0.00118
in ethanol, 315.96 K	0.00136
in ethanol, 318.07 K	0.00151
in ethanol, 320.74 K	0.0017
in ethanol, 323.96 K	0.00197
in ethanol, 327.54 K	0.00225
in ethanol, 330.06 K	0.00251
in ethanol, 333.57 K	0.00289
in methanol, 293.79 K	0.00102
in methanol, 295.38 K	0.00111
in methanol, 299.81 K	0.00136
in methanol, 302.15 K	0.00156
in methanol, 305.86 K	0.00179
in methanol, 309.32 K	0.00211
in methanol, 312.62 K	0.00247
in methanol, 315.38 K	0.00283
in methanol, 320.59 K	0.00361
in methanol, 323.37 K	0.00413
in methanol, 328.11 K	0.0053
in methanol, 330.75 K	0.00598
in methanol, 333.34 K	0.00676
in water, 302.76 K	2.68e-05
in water, 308.62 K	3.94e-05
in water, 314.75 K	4.87e-05
in water, 324.15 K	8.35e-05
in water, 329.34 K	0.000119
in water, 330.75 K	0.000132
in water, 334.52 K	0.000169
in water, 340.44 K	0.000231
in water, 344.57 K	0.000287
in water, 346.87 K	0.000323
in water, 348.94 K	0.000363
